Usually logP stands for a log measure of how a compound divides between an organic and an aqueous phase. As usually defined, the logD is the decadic logarithm of the distribution of all forms, ionised or not, between an organic phase and buffer at a given pH.

Each structure is given as a SMILES string.

Conditions in the first data set: not given
Take `O=C1C=C(N2CC2)C(=O)C=C1N1CC1`: the logP is 0.18.

With `CCS(=O)(=O)CC`, the logP is -0.59.

Compound `CC(C)c1ccccc1N` returned a logP of 2.12.

`CCCCC(=O)OC` showed a logP of 1.96.

Regarding `COc1cc(C)c2c(c1OC)C1CCC(NCc3ccccc3)C(=O)CC1C(NC(C)=O)CC2` (configuration not stated), the logP was 3.58.

In turn, `CCC(C)C(C)(C)C(N)=O` (configuration not stated) registered a logP of 1.81.

`CCNC(=O)c1ccoc1` yielded a logP of 0.72.

As to `CNC(=O)c1ccccc1C(=O)c1ccccc1`, the logP was 2.09.

For the compound `Cc1cccc(CC(=O)O)c1Nc1c(Cl)cccc1Cl`, the logP was 4.93.

For `O=C(COC(=O)c1ccccc1)NC1CCCCC1`, the logP is 2.81.

The compound `CC(C)c1ccc(C(O)C(CO)NC(=O)C(Cl)Cl)cc1` (configuration not stated) had a logP of 2.24.

Turning to `Cn1cccc1/C=N/NC(=S)Nc1ccccc1`, the logP amounted to 3.64.

Compound `CCCCCCn1cc(C)c(=O)[nH]c1=O` registered a logP of 1.93.

For the compound `O=C1CC(c2ccc(C(F)(F)F)cc2)Cc2c1c(=O)c1cc(Cl)ccc1n2O` (configuration not stated), the logP was 3.46.

Compound `CC(C)(C)n1ccnc1C=NO` displayed a logP of 0.85.

Compound `C1CCCCCC1` gave a logP of 4.

The compound `Nc1ccc(S)cc1` had a logP of 1.31.

The compound `c1ccc(COCc2ccccc2)cc1` came in with a logP of 3.31.

For `C=CCOC1=NS(=O)(=O)c2ccccc21`, the logP worked out at 1.4.

On to `CN1CCCC1=O`, for which the logP was -0.54.

On to `O=C1c2ccccc2C(=O)N1c1ccccc1`, for which the logP was 2.4.

`Cc1ccc2c(c1)nc(N)n2C`: the logP amounted to 1.47.

On to `C1=C\C=C/C=C\C=C/1`, for which the logP turned out to be 3.08.

The compound `O=C1C=C(N2CC=CC2)C(=O)c2ccccc21` returned a logP of 2.85.

The compound `O=C(Nc1ccccc1)Nc1ccccc1` had a logP of 3.

`Nc1ccccc1SSc1ccccc1N` returned a logP of 3.05.

In turn, `CCOC(=O)Nc1cccc(OC(=O)Nc2ccccc2)c1` displayed a logP of 3.39.

Consider `Cc1ccc(/N=C/N(C)/C=N/c2ccc(C)cc2C)c(C)c1`, for which the logP amounted to 5.5.

For `CC1=C(/C=C/C(C)=C/C=C/C(C)=C/CO)C(C)(C)CCC1`, the logP amounted to 5.68.

`Cc1c(Cl)ccc(OC(C)C(=O)Nc2ccccc2)c1Cl` (configuration not stated) registered a logP of 4.8.

`ON=Cc1nnc(-c2ccccc2)o1` registered a lipophilicity (logP) of 2.03.

The compound `CC(C)NC(C)C` came in with a log partition coefficient (logP) of 1.4.

As to `ClC(Cl)C(Cl)(Cl)Cl`, the logP worked out at 3.22.

For the compound `CCOc1ccc(C(C)(C)COCc2cccc(Oc3ccccc3)c2)cc1`, the logP came to 7.05.

For `CCCCOC`, the lipophilicity (logP) is 1.66.

Regarding `CC(C(=O)O)c1ccc(N2CC3CCCCC3C2=O)cc1` (configuration not stated), the logP amounted to 3.07.

`Nc1ccc(Cl)c([N+](=O)[O-])c1` displayed a logP of 2.06.

In turn, `C=CCC` yielded a logP of 2.4.

In turn, `Nc1ccc2c(c1)C(=O)N(O)C2=O` displayed a logP of 0.16.

`CC(C)C(C)OCc1cn(C)c(C=NO)n1` (configuration not stated) displayed a logP of 2.53.

Compound `CSC(=S)Nc1ccc(Cl)c(Cl)c1` showed a lipophilicity (logP) of 4.23.

`O=C1CC(OC(=O)c2ccccc2)N1` (configuration not stated): the logP turned out to be 1.37.

Regarding `COC(=O)Nc1c(C)cccc1C`, the logP came to 1.69.

In turn, `O=S1(=O)OCC2C(CO1)C1(Cl)C(Cl)=C(Cl)C2(Cl)C1(Cl)Cl` (configuration not stated) yielded a logP of 3.66.

`O=C(CCn1ccnc1[N+](=O)[O-])NCCO` gave a logP of -1.08.

The compound `O=C(Nc1ccc(Cl)cc1)c1cccnc1` showed a logP of 2.53.

In the case of `COC(=O)C(Cl)(Cl)Cl`, the logP worked out at 2.03.

In turn, `CN(C)N=Nc1nccs1` registered a logP of 1.27.

`O=C(NCCO)C(F)(F)Cn1cnc([N+](=O)[O-])n1`: the logP was -0.77.

In the case of `CCn1cnc2c(NC(C)=O)ncnc21`, the logP was -0.41.

Compound `C1COC1` registered a logP of -0.14.

`Nc1cc(Cl)c(Cl)cc1N` yielded a logP of 2.

Take `N#Cc1ccc2[nH]c(N)nc2c1`: the logP is 1.13.

In turn, `CN(C)/C=C/C#N` registered a logP of 0.47.

With `Cc1ncc[nH]1`, the logP came to 0.24.

Turning to `O=[N+]([O-])c1ccccc1SSc1ccccc1[N+](=O)[O-]`, the logP is 3.37.

Compound `O=C(N/N=C/c1ccco1)Nc1ccccc1` registered a logP of 2.52.

Take `Oc1ccc(C(F)(F)F)cc1`: the lipophilicity (logP) stood at 2.82.

As for `c1ccc(P(c2ccccc2)c2ccccc2)cc1`, the logP is 5.69.

Compound `Clc1nc(Cl)nc(Nc2ccccc2Cl)n1` returned a log partition coefficient (logP) of 3.

`CC(C)(C)C(=O)c1ccccc1`: the logP came to 3.

`O=C1CCc2cccc3c2N1CC3` gave a logP of 1.6.

In the case of `CC1CN1C1=C(F)C(=O)C(N2CC2C)=C(F)C1=O` (configuration not stated), the logP came to 1.61.

The compound `COc1cccc(N(C)C(=S)Oc2cccc(C(C)(C)C)c2)n1` registered a logP of 5.18.

Consider `C=C(C)CN(CC)c1c([N+](=O)[O-])cc(C(F)(F)F)cc1[N+](=O)[O-]`, for which the logP worked out at 5.11.

`Cn1ccc(=O)n(C)c1=O` gave a logP of -0.54.

`CCc1cccnc1` yielded a logP of 1.66.

For the compound `CON=C(Cc1cccnc1)c1ccc(Cl)cc1Cl`, the logP is 2.51.

With `CC(C)(C)Cl`, the logP turned out to be 1.82.

Take `CN(C)C(=O)SCCCCOc1ccccc1`: the logP worked out at 3.28.

Staying with this data set, now noted: pH 1.0.
`O=C(O)CCCl` yielded a logD of 0.41.

Staying with this data set, now noted: pH 2.1.
Consider `CC(=O)Nc1ccc(S(N)(=O)=O)cc1`, for which the logD amounted to 0.

Still in this data set, the particulars now being: pH 4.0.
Consider `O=[N+]([O-])c1cc(C(F)(F)F)ccc1NN=C(C(F)(F)F)C(F)(F)F`, for which the logD was 4.8.

Take `CC(C)=NNc1c([N+](=O)[O-])cc(C(F)(F)F)cc1[N+](=O)[O-]`: the logD was found to be 3.2.

Still in this data set, the particulars now being: pH 7.0.
`COc1c2c(cc3c1-c1ccc(OC)c(=O)cc1C(NC(C)=O)CC3)OCO2` (configuration not stated) showed a logD of 1.6.

As to `CC1(C)COC(Cn2cncn2)(c2ccc(-n3ccnc3)cc2Cl)OC1`, the logD was 2.26.

Still in this data set, the particulars now being: pH 7.1.
For `CSCCC(NC(C)=O)C(N)=O` (configuration not stated), the logD is -0.6.

The same data set, now with this note: pH 7.4.
As for `CCc1ncc([N+](=O)[O-])n1C`, the logD was 0.62.

As for `CN1C(=O)CN=C(c2ccccc2F)c2c(F)cccc21`, the logD stood at 2.41.

As for `CNC(=O)c1cccc2cccnc12`, the logD worked out at 1.87.

In the case of `CC(C)(C)c1ccc(N)cc1`, the logD was found to be 2.7.

In turn, `CN(C)c1ccc2c(c1)C(c1ccccc1Cl)=NCC(=O)N2C` registered a logD of 2.72.

`Cc1cc2c3ccccc3nc-2[nH]c1N` gave a logD of 2.9.

In turn, `CC(=O)Oc1cccc2cccnc12` displayed a logD of 2.03.

The compound `C#CCn1ncc2cc([N+](=O)[O-])ccc21` displayed a logD of 0.52.

In the case of `O=C(/C=C/c1ccc([N+](=O)[O-])o1)N/N=C/c1ccc([N+](=O)[O-])o1`, the logD was 2.22.

`Cc1cc(=O)[nH]c(=O)[nH]1` gave a logD of -0.77.

In turn, `O=C(NC(F)(F)F)c1cccc2cccnc12` registered a logD of 3.24.

On to `COC(=O)Cn1c([N+](=O)[O-])cnc1C`, for which the logD amounted to 0.17.

On to `c1ccc(C23CCCN2CCO3)cc1` (configuration not stated), for which the logD came out at 1.04.

Still in this data set, the particulars now being: pH 13.0.
In turn, `CN1CCCNCC1` came in with a logD of -0.4.

`NNc1ccc([N+](=O)[O-])cc1` gave a logD of 1.41.

Compound `OCCNCc1ccccc1` came in with a logD of 0.79.

Compound `Nc1ncc(Cc2ccccc2Cl)c(N)n1` displayed a logD of 2.24.

`N#CCN`: the logD was -1.37.

Compound `NCCN1CCCC1` yielded a logD of 0.08.

As to `COc1ccc(Oc2cnc(N)nc2N)c(OC)c1OC`, the logD was 0.9.

Source of the values: the SangsterLogP compilation.
